The text below walks through data of patent US12195482B1 (Arcus Biosciences, Inc., priority 2022, dated 2025).

The target of test [1] is T1, recombinant human TYRO3 (Homo sapiens, UniProt Q06418).
T1 construct: purchased Invitrogen
T1 sequence (Q06418 41-890): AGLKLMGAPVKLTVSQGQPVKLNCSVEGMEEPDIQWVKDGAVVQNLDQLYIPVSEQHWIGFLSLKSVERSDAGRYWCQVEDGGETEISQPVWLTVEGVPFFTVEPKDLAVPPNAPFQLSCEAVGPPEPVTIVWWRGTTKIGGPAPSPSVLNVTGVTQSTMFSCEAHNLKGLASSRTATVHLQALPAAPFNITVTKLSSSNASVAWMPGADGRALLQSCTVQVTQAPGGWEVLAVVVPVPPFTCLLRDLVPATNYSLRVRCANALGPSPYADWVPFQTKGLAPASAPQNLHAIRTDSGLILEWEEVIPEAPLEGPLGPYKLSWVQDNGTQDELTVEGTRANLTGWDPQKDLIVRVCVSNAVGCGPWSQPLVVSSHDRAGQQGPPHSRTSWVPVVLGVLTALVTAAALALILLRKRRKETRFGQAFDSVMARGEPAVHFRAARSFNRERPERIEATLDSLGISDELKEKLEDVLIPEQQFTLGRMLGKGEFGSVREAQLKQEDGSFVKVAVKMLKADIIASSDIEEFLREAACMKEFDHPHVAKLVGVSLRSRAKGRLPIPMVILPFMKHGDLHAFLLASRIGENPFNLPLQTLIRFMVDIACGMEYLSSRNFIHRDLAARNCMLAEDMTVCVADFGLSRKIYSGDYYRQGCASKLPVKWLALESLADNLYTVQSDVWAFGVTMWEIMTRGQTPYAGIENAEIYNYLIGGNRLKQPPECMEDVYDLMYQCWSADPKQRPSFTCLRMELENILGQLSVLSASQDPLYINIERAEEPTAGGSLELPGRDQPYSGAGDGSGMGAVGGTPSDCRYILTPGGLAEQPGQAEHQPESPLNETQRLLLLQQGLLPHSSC
Nature of the test: Biochemical potency, HTRF KinEASE-TK kinase assay. The following applies: 1 nM TYRO3, 700 μM ATP. The method, boiled down:
(§1)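 Steps: compound plus kinase, 1 h RT; add ATP (700 µM final) and biotin-TK substrate (800 nM final); run 2 h RT; stop into streptavidin-XL665/anti-phospho cryptate detection mix, 1 h; read 665/620. AXL at 5 nM, TYRO3 and MER at 1 nM.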
For orientation: Time-resolved FRET reads energy transfer from a long-lived donor to a nearby acceptor.

The target in test [2] is T2, recombinant human MER (Homo sapiens, UniProt Q12866).
T2 construct: purchased Invitrogen
T2 sequence (Q12866 21-999): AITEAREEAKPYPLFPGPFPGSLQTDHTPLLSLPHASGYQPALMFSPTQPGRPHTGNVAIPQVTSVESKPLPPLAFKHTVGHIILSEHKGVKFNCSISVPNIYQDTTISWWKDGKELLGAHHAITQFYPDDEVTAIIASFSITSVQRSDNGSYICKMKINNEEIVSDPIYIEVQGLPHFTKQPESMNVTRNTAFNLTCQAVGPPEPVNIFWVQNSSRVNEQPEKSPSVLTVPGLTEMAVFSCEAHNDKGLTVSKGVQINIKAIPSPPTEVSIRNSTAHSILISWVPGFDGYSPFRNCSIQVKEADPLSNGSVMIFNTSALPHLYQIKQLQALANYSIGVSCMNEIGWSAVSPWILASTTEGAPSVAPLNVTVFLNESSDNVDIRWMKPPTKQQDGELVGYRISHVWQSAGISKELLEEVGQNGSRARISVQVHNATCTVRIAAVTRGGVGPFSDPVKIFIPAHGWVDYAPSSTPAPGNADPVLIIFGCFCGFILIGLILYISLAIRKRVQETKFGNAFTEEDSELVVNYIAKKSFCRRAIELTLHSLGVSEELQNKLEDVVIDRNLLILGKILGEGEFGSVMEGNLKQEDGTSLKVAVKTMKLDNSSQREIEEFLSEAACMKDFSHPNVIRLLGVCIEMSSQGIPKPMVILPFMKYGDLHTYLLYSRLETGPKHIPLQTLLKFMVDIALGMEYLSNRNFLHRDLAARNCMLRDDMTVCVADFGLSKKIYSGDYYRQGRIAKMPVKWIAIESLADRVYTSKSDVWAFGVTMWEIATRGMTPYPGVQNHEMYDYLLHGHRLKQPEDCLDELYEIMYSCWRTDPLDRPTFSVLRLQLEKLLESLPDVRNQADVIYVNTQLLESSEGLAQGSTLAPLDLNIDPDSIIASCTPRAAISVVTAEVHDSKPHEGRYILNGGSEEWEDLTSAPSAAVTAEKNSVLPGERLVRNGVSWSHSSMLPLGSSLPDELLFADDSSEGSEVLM
The experiment in a line: Biochemical potency, HTRF KinEASE-TK kinase assay. As to conditions: 1 nM MER, 700 μM ATP. The method, boiled down: as §1

By IC50 is commonly meant the concentration needed to halve the response being measured. With `Cc1cnc(-c2ccc(-c3n[nH]c4ncc(-c5ccc6c(c5)CC[C@@H](N5C7COCC5C7)CC6)cc34)cc2)c(C)c1` [Example 119, 6-[(7S)-2-{3-[4-(3,5-Dimethylpyridin-2-yl)phenyl]-1H-pyrazolo[3,4-b]pyridin-5-yl}-6,7,8,9-tetrahydro-5H-benzo[7]annulen-7-yl]-3-oxa-6-azabicyclo[3.1.1]heptane], the IC50 in test [1] and in test [2] was below 100 nM throughout.

On to `Cc1ccc(C)c(-c2ccc(-c3n[nH]c4ncc(-c5ccc6c(c5)CC[C@@H](N5C7COCC5C7)CC6)cc34)cc2)n1` [Example 120, 6-[(7S)-2-{3-[4-(3,6-Dimethylpyridin-2-yl)phenyl]-1H-pyrazolo[3,4-b]pyridin-5-yl}-6,7,8,9-tetrahydro-5H-benzo[7]annulen-7-yl]-3-oxa-6-azabicyclo[3.1.1]heptane], for which the IC50 in test [1] is below 100 nM; in test [2], 100 to 1000 nM.

For `O=C1OCCN1c1cccnc1-c1ccc(-c2n[nH]c3ncc(-c4ccc5c(c4)CC[C@@H](N4C6COCC4C6)CC5)cc23)cc1` [Example 121, 3-[2-(4-{5-[(7S)-7-{3-Oxa-6-azabicyclo[3.1.1]heptan-6-yl}-6,7,8,9-tetrahydro-5H-benzo[7]annulen-2-yl]-1H-pyrazolo[3,4-b]pyridin-3-yl}phenyl)pyridin-3-yl]-1,3-oxazolidin-2-one], the IC50 in test [1] and in test [2] was below 100 nM throughout.

`Cc1ncc(C)c(-c2ccc(-c3n[nH]c4ncc(-c5ccc6c(c5)CC[C@@H](N5C7COCC5C7)CC6)cc34)cc2)n1` [Example 122, 6-[(7S)-2-{3-[4-(2,5-Dimethylpyrimidin-4-yl)phenyl]-1H-pyrazolo[3,4-b]pyridin-5-yl}-6,7,8,9-tetrahydro-5H-benzo[7]annulen-7-yl]-3-oxa-6-azabicyclo[3.1.1]heptane]: the results for the IC50 in test [1] and in test [2] were below 100 nM and 100 to 1000 nM, respectively.

With `Cc1ncc(C)c(-c2ccc(-c3c[nH]c4ncc(-c5ccc6c(c5)CC[C@@H](N5C7COCC5C7)CC6)cc34)cc2)n1` [Example 123, 6-[(7S)-2-{3-[4-(2,5-Dimethylpyrimidin-4-yl)phenyl]-1H-pyrrolo[2,3-b]pyridin-5-yl}-6,7,8,9-tetrahydro-5H-benzo[7]annulen-7-yl]-3-oxa-6-azabicyclo[3.1.1]heptane], the IC50 in test [1] and in test [2] was below 100 nM throughout.

On to `C[C@@H]1COC(=O)N1c1cccnc1-c1ccc(-c2n[nH]c3ncc(-c4ccc5c(c4)CC[C@@H](N4C6COCC4C6)CC5)cc23)cc1` [Example 124, (4R)-4-Methyl-3-[2-(4-{5-[(7S)-7-{3-oxa-6-azabicyclo[3.1.1]heptan-6-yl}-6,7,8,9-tetrahydro-5H-benzo[7]annulen-2-yl]-1H-pyrazolo[3,4-b]pyridin-3-yl}phenyl)pyridin-3-yl]-1,3-oxazolidin-2-one], for which the IC50 in test [1] and in test [2] was below 100 nM in each case.

Turning to `C[C@H]1COC(=O)N1c1cccnc1-c1ccc(-c2n[nH]c3ncc(-c4ccc5c(c4)CC[C@@H](N4C6COCC4C6)CC5)cc23)cc1` [Example 125, (4S)-4-Methyl-3-[2-(4-{5-[(7S)-7-{3-oxa-6-azabicyclo[3.1.1]heptan-6-yl}-6,7,8,9-tetrahydro-5H-benzo[7]annulen-2-yl]-1H-pyrazolo[3,4-b]pyridin-3-yl}phenyl)pyridin-3-yl]-1,3-oxazolidin-2-one], the IC50 in test [1] and in test [2] was below 100 nM throughout.

For the molecule `O=C1CCCCN1c1cccnc1-c1ccc(-c2n[nH]c3ncc(-c4ccc5c(c4)CC[C@@H](N4C6COCC4C6)CC5)cc23)cc1` [Example 127, 1-[2-(4-{5-[(7S)-7-{3-Oxa-6-azabicyclo[3.1.1]heptan-6-yl}-6,7,8,9-tetrahydro-5H-benzo[7]annulen-2-yl]-1H-pyrazolo[3,4-b]pyridin-3-yl}phenyl)pyridin-3-yl]piperidin-2-one], the IC50 in test [1] is below 100 nM; in test [2], 100 to 1000 nM.
